The target in data set [1] is SSAT in cytosolic liver fraction of transgenic mice (Mus musculus, UniProt P48026). To be noted: read-out: Km of spermidine acetylation (literature reference); cited from earlier work.
Data set [2] has as its target spermidine/spermine N1-acetyltransferase (SSAT) (Rattus norvegicus, UniProt Q6P9U6). In words: SSAT-mediated N-acetylation enzyme kinetics in plateable cryopreserved primary rat hepatocytes (LC/MS/MS, Lineweaver-Burk). To be noted: for Vmax of N-acetylation by SSAT: confirmatory experiment, primary rat hepatocytes, 24-hour incubation, Lineweaver-Burk estimate. How it is done:
(§1) Refer to the table below for the testing concentrations. Metabolites collected from the incubation reactions were measured by LC/MS/MS analysis.
Immediately before use, cryopreserved primary rat hepatocytes were thawed in a water bath at 37° C. and resuspended in pre-warmed InVitroGRO™ CP Rat Medium. […] Hepatocyte concentrations were adjusted by addition with InVitroGRO™ CP Rat Medium to achieve the target plating concentration of 0.70×10^6 cells/m L. Aliquots of hepatocytes were plated (0.5 mL/well) in 24-well CellAffix culture plates and the plates were placed in an incubator maintained at 37° C. with a highly humidified atmosphere of 95% air and 5% […] for 4 hours to allow hepatocyte attachment before dosing with the selective substrate solutions.
(§2) Following cell attachment, the culture medium was aspirated from each well, and replaced with pre-warmed InVitroGRO™ HI Rat Medium (added with Torpedo antibiotic mix in the confirmatory experiment) and the substrate solution at the appropriate concentration. The treated cells were returned to incubation for 24 hours. Upon completion of incubation, the medium from each well was collected into 1.7-mL vials containing ice-cold methanol and stored at nominal −80° C. (−72° C. to −88° C.) prior to LC/MS/MS analysis. Hepatocytes remaining in the wells were subjected to MTT assay to evaluate the cytotoxic potential of the substrates at the testing concentrations.
Four LC/MS/MS assays were employed to individually quantitate the four metabolites in the incubation samples.
Enzyme kinetics was evaluated based on the enzymatic conversion of the substrate at a range of testing concentrations into their N-acetylated metabolites over a 24-hour incubation reaction time course. Metabolite formation from different testing substrate concentrations after incubation was measured by LC/MS/MS and the resulting data constructed into Lineweaver-Burk plots of the double reciprocal of reaction velocity against substrate concentrations to estimate the Km and Vmax values of SSAT-mediated N-acetylation of each substrate tested.

A further data set relates to rat hepatocytes. To be noted: for Substrate concentration resulting in extensive cytotoxicity / Substrate concentration that resulted in extensive cytotoxicity: rat, 24 h. How it is done:
as §1, §2
Upon collection of the reaction medium, an aliquot of 0.5 mg/mL MTT in KHB was added immediately to the remaining hepatocytes in each well and then incubated for approximately 30 minutes. Following incubation, the medium was replaced with dimethyl sulfoxide (DMSO) to dissolve the formazan. An aliquot from each well was measured for absorbance at 540 nm on a 96-well flat bottom plate with a microplate reader and DMSO for background absorbance correction.
The cytotoxic potential of the substrates to rat hepatocytes was evaluated by MTT cytotoxicity assays. The assays were performed in both the pilot and the confirmatory experiments.

Here are results for four compounds from patent US11441168B2, “Method for assaying the activity of spermidine/spermine N1-acetyltransferase” (BioMark Technologies Inc., priority 2011, dated 2022).

Sequence of spermidine/spermine N1-acetyltransferase (SSAT) (Q6P9U6 1-171): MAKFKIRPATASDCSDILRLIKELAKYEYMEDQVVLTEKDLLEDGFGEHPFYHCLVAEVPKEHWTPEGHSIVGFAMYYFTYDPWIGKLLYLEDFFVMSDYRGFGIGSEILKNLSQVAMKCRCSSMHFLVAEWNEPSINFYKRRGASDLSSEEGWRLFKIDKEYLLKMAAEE
Sequence of SSAT in cytosolic liver fraction of transgenic mice (P48026 whole entry): as the sequence (Q6P9U6 1-171) above, with V35I, L42Q counted along it

The Km is the substrate concentration at which the rate is half of its maximum. As to `NCCCCNCCCN` [spermidine], the Km in data set [1] was 267 ± 46 µM. The “Vmax of N-acetylation by SSAT” value in data set [2] is listed as 7.21 pmol/min/million cells. In addition, the “Cytotoxicity to rat hepatocytes (in words)” value (“Cytotoxicity … (in words)” below) in the data set on rat hepatocytes was “No cytotoxicity”.
As to `NC12CC3CC(CC(C3)C1)C2` [amantadine], the “Vmax of N-acetylation by SSAT” value in data set [2] was 0.00197 pmol/min/million cells. In the data set on rat hepatocytes, the “Cytotoxicity … (in words)” value is listed as “Significant cytotoxicity”, the “Substrate concentration resulting in extensive cytotoxicity” value is “approximately 1140 μM” and the “Substrate concentration that resulted in extensive cytotoxicity” value was “approximately 1170 μM”.
Consider `CC(N)C12CC3CC(CC(C3)C1)C2` (centres unmarked) [rimantadine], for which the “Vmax of N-acetylation by SSAT” value in data set [2] is recorded as 0.364 pmol/min/million cells. Further, in data set [2] (rat), the Km at 24 h amounted to 1840 µM. Besides, in the data set with rat hepatocytes, the “Cytotoxicity … (in words)” value was “Significant cytotoxicity”, the “Substrate concentration resulting in extensive cytotoxicity” value is about 220 µM and the “Substrate concentration that resulted in extensive cytotoxicity” value was about 280 µM.
As for `Cc1cccc(C)c1NC(=O)C(C)N` (centres unmarked) [tocainide], the “Vmax of N-acetylation by SSAT” value in data set [2] is on record as 0.617 pmol/min/million cells. Moreover, in the data set on rat hepatocytes, the “Cytotoxicity … (in words)” value was “No cytotoxicity”.
